Like-named read-outs stand apart in the source and are kept apart here. One block for each molecule: values may come before it.
Assays:
[1] = system: panel of approximately 60 different human tumor cell lines; experiment: National Cancer Institute drug screen, mean-graph parameters; assay type: cell-based; conditions: mean over cell line panel, two days exposure; for GI50: Homo sapiens, 48 h, read-out: Tumor Cell Mean log GI50 (converted)
In short: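 About 60 human tumour cell lines in eight histology subpanels were exposed continuously to a concentration range for two days. GI50 (50% growth decrease versus untreated control), TGI (cell number equal to start) and LC50 (50% reduction versus start) were derived per cell line and summarised as mean-graph negative log10 values.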

K562 cells = experiment: K562 cell culture and growth assay, 6 day MTT; assay type: cell-based, human; conditions: K562, 6 days, 4 or more experiments
In short: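 Cells (2×10^3/well) in RPMI with 10% fetal calf serum incubated with increasing compound concentrations in DMSO, with DMSO-matched controls. Growth quantitated after 6 days by MTT reduction to formazan.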

MDA-MB-435 = experiment: Hollow fiber assay in mice, MDA-MB-435; assay type: in vivo, human; conditions: QD X 4, Day 4; for % T/C MDA-MB-435 IP: IP fibers; for % T/C MDA-MB-435 SC: SC fibers
Experimental: (§1) Compounds satisfying Formulas 1 and 2 also have been tested for in vivo activity in the hollow fiber assay. See Example 12 below for the procedure used for the in vivo tests. Each compound tested was tested against a minimum of 12 human cancer cell lines. Data is reported as % T/C (i.e., the […]) for each of the 2 compound doses against each of the cell lines with separate values calculated for the intraperitoneal and subcutaneous samples, with a target value for % T/C being about 50 or less.
(§2) Compounds were selected for further in vivo testing in standard subcutaneous xenograft models on the basis of several hollow fiber assay criteria. These criteria include: (1) a % T/C of 50 or less in 10 of the 48 possible test combinations (12 cell lines×2 sites×2 compound doses); (2) activity at a distance (intrapentoneal drug/subcutaneous culture) in a minimum of 4 of the 24 possible combinations; and/or (3) a net cell kill of 1 or more cell lines in either implant site. To simplify evaluation, a point system has been adopted which allows rapid assessment of a compound's activity. A value of 2 is assigned for each compound dose which results in a 50% or greater reduction in viable cell mass. The intraperitoneal and subcutaneous samples were scored separately so that criteria (1) and (2) could be evaluated. Compounds with a combined IP+SC score≧20, an SC score≧8, or a net cell kill of one or more cell lines were referred for xenograft testing. These criteria have been statistically validated by comparing the activity outcomes of greater than 80 randomly selected compounds in the hollow fiber assay and in the xenograft testing.
(§3) This example describes the method used for in vivo testing of mice. Human cancer cells were cultivated in polyvinylidene fluoride (PVDF) hollow fibers. A sample of each cancer cell line was implanted intraperitoneally and subcutaneously in mice. Each mouse received a total of 6 fibers, 3 intraperitoneally and 3 subcutaneously, representing 3 distinct cancer cell lines. Three mice were treated with compounds made according to the present invention at each of two test doses intraperitoneally using a QD×4 treatment schedule. […] Anticancer effects were assessed by determining viable cell mass for each of the coil line using a formazan dye (MTT) conversion assay. From this, the % TIC was calculated using the average optical density of the compound-treated samples divided by the average optical density of the vehicle controls. In addition, the net increase in cell mass was determined for each sample as samples of fiber cultures were assessed for viable cell mass on the day of implantation into mice. This allowed cytostatic and cytocidal capacities of these compounds to be assessed.

NCI-H23 = experiment: Hollow fiber assay in mice, NCI-H23; assay type: in vivo, human; conditions: QD X 4, Day 4; for % T/C NCI-H23 IP: IP fibers; for % T/C NCI-H23 SC: SC fibers
Experimental: as §1, §2, §3

SF-295 = experiment: Hollow fiber assay in mice, SF-295; assay type: in vivo, human; conditions: QD X 4, Day 4; for % T/C SF-295 IP: IP fibers; for % T/C SF-295 SC: SC fibers
Experimental: as §1, §2, §3

OVCAR-5 = experiment: Hollow fiber assay in mice, OVCAR-5; assay type: in vivo, human; conditions: QD X 4, Day 4; for % T/C OVCAR-5 IP: IP fibers; for % T/C OVCAR-5 SC: SC fibers
Experimental: as §1, §2, §3

[2] = Homo sapiens, 144 h, Table 10, mean ± S.E., read-out: IC50 (μM) 6dMTT
[3] = Table 10, mean ± S.E., read-out: IC50 (μM) 6dMTT
[4] = Homo sapiens, 144 h, Table 8, mean+S.E., read-out: IC50 (μM) 6 dMTT

IC50 (K562 cells; [4]): 16.4 µM
Structure (SMILES): CC(C)(C)OC(=O)c1ccc(NCc2cc(O)ccc2O)cc1 [COOC(CH3)3 / H / H, 4′-t-butylbenzoate-1′-N-2,5-dihydroxybenzylamine]
Tumor Cell Mean log GI50 ([1]; Table 8): −5.66
Tumor Cell Mean log TGI ([1]; Table 8): −5.03

IC50 (K562 cells; [4]): 12 µM
Structure (SMILES): O=C(OCc1ccccc1)c1ccc(NCc2cc(O)ccc2O)cc1 [COOCH2Ph / H / H]
Tumor Cell Mean log GI50 ([1]; Table 8): −5.85
Tumor Cell Mean log TGI ([1]; Table 8): −5.35

IC50 (K562 cells; [4]): 15.1 µM
Structure (SMILES): CC(C)OC(=O)c1ccc(NCc2cc(O)ccc2O)cc1 [COOCH(CH3)2 / H / H]
Tumor Cell Mean log GI50 ([1]; Table 8): −5.52
Tumor Cell Mean log TGI ([1]; Table 8): −4.84

IC50 (K562 cells; [4]): 9.98 µM
Structure (SMILES): CC(C)C(OC(=O)c1ccc(NCc2cc(O)ccc2O)cc1)C(C)C [COOCH[CH(CH3)2]2 / H / H]
Tumor Cell Mean log GI50 ([1]; Table 8): −5.91
Tumor Cell Mean log TGI ([1]; Table 8): −5.35

Second part, the molecule before the results:

Structure (SMILES): COC(=O)c1ccc(CCc2cc(O)c(Br)cc2O)cc1
GI50 ([1]; Table 10): 12.3 µM
Tumor Cell Mean log TGI ([1]; Table 10): −4.54
IC50 (K562 cells; [2]): 7 ± 0.5 µM

Structure (SMILES): COC(=O)c1ccc(CCC2=CC(=O)C(Br)=CC2=O)cc1
GI50 ([1]; Table 10): 14.1 µM
Tumor Cell Mean log TGI ([1]; Table 10): −4.43
IC50 (K562 cells; [2]): 36.5 ± 1 µM

Structure (SMILES): CC(C)OC(=O)c1ccc(CCC2=CC(=O)C(Br)=CC2=O)cc1
Tumor Cell Mean log GI50 ([1]; Table 10): −4.85
Tumor Cell Mean log TGI ([1]; Table 10): −4.48
IC50 (K562 cells; [3]): 59.8 ± 0.44 µM

Structure (SMILES): COC(=O)c1ccc(C=Cc2cc(O)ccc2O)cc1 [COOCH3 / 2,5-dihydoxyphenyl / CH═CH / H]
GI50 ([1]; Table 10): 3.31 µM
Tumor Cell Mean log TGI ([1]; Table 10): −4.81
IC50 (K562 cells; [2]): 9.72 ± 0.49 µM

Structure (SMILES): COC(=O)c1ccc(/C=C/C2=CC(=O)C=CC2=O)cc1 [COOCH3 / 2,5-quinoyl / CH═CH / H]
Tumor Cell Mean log GI50 ([1]; Table 10): −4.86
Tumor Cell Mean log TGI ([1]; Table 10): −4.40
IC50 (K562 cells; [3]): 17.8 ± 0.22 µM

Structure (SMILES): CC(C)OC(=O)c1ccc(CCC2=CC(=O)C=CC2=O)cc1 [COOCH(CH3)2 / 2,5-quinoyl / CH2—CH2 / H]
Tumor Cell Mean log GI50 ([1]; Table 10): −5.05
Tumor Cell Mean log TGI ([1]; Table 10): −4.58
IC50 (K562 cells; [3]): 19.9 ± 0.5 µM

Structure (SMILES): CC(C)OC(=O)c1ccc(NCc2cc(O)ccc2O)cc1Cl [COOCH(CH3)2 / Cl / H, 5′-chloro-4′-isopropylbenzoate-1′-N-2,5-dihydroxybenzylamine]
Tumor Cell Mean log GI50 ([1]; Table 8): −5.46
Tumor Cell Mean log TGI ([1]; Table 8): −5.65
IC50 (K562 cells; Table 8, mean+S.E., read-out: IC50 (μM) 6 dMTT): 21.6 µM

Structure (SMILES): CC(C)C(OC(=O)c1ccc(NCC2=CC(=O)C=CC2=O)cc1)C(C)C [COOCH[CH(CH3)2]2 / H / 2,5-quinoyl]
Tumor Cell Mean log GI50 ([1]; Table 9): −5.25
Tumor Cell Mean log TGI ([1]; Table 9): −4.78
IC50 (K562 cells; Table 9, mean ± S.E., read-out: IC50 (μM) 6dMTT): 38.8 ± 12.8 µM

Structure (SMILES): O=C(OC12CC3CC(CC(C3)C1)C2)c1ccc(NCc2cc(O)ccc2O)cc1 [Compound 6, 4′-adamantylbenzoate-1′-N-2,5-dihydroxybenzylamine]
Tumor Cell Mean log GI50 ([1]; Table 8): −6.03
Tumor Cell Mean log TGI ([1]; Table 8): −5.44
% T/C MDA-MB-435 IP (MDA-MB-435; 33.50 mg/kg/dose IP): >100%
% T/C MDA-MB-435 IP (MDA-MB-435; 50.00 mg/kg/dose IP): 72%
% T/C MDA-MB-435 SC (MDA-MB-435; 33.50 mg/kg/dose IP): 94%
% T/C MDA-MB-435 SC (MDA-MB-435; 50.00 mg/kg/dose IP): 99%
% T/C NCI-H23 IP (NCI-H23; 33.50 mg/kg/dose IP): 100%
% T/C NCI-H23 IP (NCI-H23; 50.00 mg/kg/dose IP): >100%
% T/C NCI-H23 SC (NCI-H23; 33.50 mg/kg/dose IP): >100%
% T/C NCI-H23 SC (NCI-H23; 50.00 mg/kg/dose IP): >100%
% T/C SF-295 IP (SF-295; 33.50 mg/kg/dose IP): >100%
% T/C SF-295 IP (SF-295; 50.00 mg/kg/dose IP): 88%
% T/C SF-295 SC (SF-295; 33.50 mg/kg/dose IP): >100%
% T/C SF-295 SC (SF-295; 50.00 mg/kg/dose IP): 88%
IC50 (K562 cells; [4]): 9.75 µM
% T/C OVCAR-5 IP (OVCAR-5; 33.50 mg/kg/dose IP): >100%
% T/C OVCAR-5 IP (OVCAR-5; 50.00 mg/kg/dose IP): 46%
% T/C OVCAR-5 SC (OVCAR-5; 33.50 mg/kg/dose IP): 87%
% T/C OVCAR-5 SC (OVCAR-5; 50.00 mg/kg/dose IP): 75%

Structure (SMILES): O=C(OCC12CC3CC(CC(C3)C1)C2)c1ccc(NCc2cc(O)ccc2O)cc1 [Compound 7, 4′-4′-adamantylmethylbenzoate-1′-N-2,5-dihydroxybenzylamine]
Tumor Cell Mean log GI50 ([1]; Table 8): −5.89
Tumor Cell Mean log TGI ([1]; Table 8): −5.09
IC50 (K562 cells; [4]): 12.8 µM
